Laboratory results from patent publication US5516894A, “A2b -adenosine receptors” (priority 1994, dated 1996).
“Also recorded” adds a separate entry of the source. Values belong to the compound of their own block, whether it stands above or below them.

Assays:
[1] = test system: non-transformed CHO cells; conditions: 100 nM
[2] = biological target: T1, rat A1-adenosine receptor (Rattus norvegicus, UniProt P25099); assay: [3H]ligand binding to COS-6M cells transiently transfected with rat A1-adenosine receptor cDNA; conditions: [3H]NECA 20 nM, [3H]CCPA 2 nM
T1 sequence (P25099 1-326): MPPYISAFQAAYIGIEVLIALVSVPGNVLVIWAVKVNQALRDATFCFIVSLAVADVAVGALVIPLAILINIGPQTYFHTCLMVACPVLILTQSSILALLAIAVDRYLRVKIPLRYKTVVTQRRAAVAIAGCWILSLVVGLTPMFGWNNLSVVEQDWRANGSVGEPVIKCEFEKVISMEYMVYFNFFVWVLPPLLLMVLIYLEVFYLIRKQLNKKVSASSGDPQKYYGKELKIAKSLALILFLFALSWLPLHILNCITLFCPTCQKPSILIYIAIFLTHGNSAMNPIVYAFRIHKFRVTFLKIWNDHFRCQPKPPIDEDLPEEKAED

[3] = biological target: T2, RFL9 (rat A2b-adenosine receptor) (Rattus norvegicus, UniProt P29276); assay: ligand binding to COS-6M cells transiently transfected with RFL9; conditions: for specific binding: [3H]NECA 20 nM, [3H]CCPA 2 nM, [3H]CGS-21680 20 nM
T2 sequence (P29276 1-332): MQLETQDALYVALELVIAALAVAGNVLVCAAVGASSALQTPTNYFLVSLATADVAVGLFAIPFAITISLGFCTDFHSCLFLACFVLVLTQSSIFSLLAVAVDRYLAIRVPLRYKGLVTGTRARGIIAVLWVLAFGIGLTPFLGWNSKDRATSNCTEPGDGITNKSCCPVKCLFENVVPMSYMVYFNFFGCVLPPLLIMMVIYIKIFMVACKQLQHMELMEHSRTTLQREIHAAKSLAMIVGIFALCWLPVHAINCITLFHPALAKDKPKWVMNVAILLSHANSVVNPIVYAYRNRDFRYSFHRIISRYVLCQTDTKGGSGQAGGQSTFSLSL

[4] = test system: A2a-adenosine receptors; conditions: cited from earlier work
[5] = biological target: T2, RFL9 (rat A2b-adenosine receptor); assay: cAMP in CHO cells stably transfected with RFL9; type: cell-based; conditions: NECA 1 μM; four clones
Text: Eight clones were identified which expressed RFL9 mRNA.
Generation of Stable Cell Lines
RNA was extracted from cells following NP-40 lysis.
Cyclic AMP Studies on Stable Transfectants

[6] = biological target: T2, RFL9 (rat A2b-adenosine receptor); assay: cAMP response in COS-6M cells transfected with RFL9; type: cell-based
[7] = test system: CHO cells; assay: cAMP accumulation in non-transformed CHO cells; type: cell-based, Chinese Hamster; conditions: 1 mM; CHO cells not transformed; n=3
[8] = biological target: rat A2a-adenosine receptor (Rattus norvegicus, UniProt P30543); conditions: COS-6M cells; [3H]NECA 20 nM, [3H]CCPA 2 nM, [3H]CGS-21680 20 nM
[9] = biological target: T2, RFL9 (rat A2b-adenosine receptor); assay: [3H]NECA specific binding to RFL9-transformed CHO cells; conditions: 100 nM; n=3
Text: All determinations were done in triplicate.

[10] = test system: dog A2a-adenosine receptor; conditions: cited from earlier work

Structure (SMILES): CCNC(=O)[C@H]1O[C@@H](n2cnc3c(N)ncnc32)[C@H](O)[C@@H]1O [[^3 H]NECA] [[^3 H]5'-N-ethylcarboxamidoadenosine]
[3H]NECA specific binding [1]: 100 ± 23 fmol/mg
specific binding [2]: specifically bound

Structure (SMILES): COc1ccc2[nH]c([125I])c(CCNC(C)=O)c2c1 [2[^125 1]melatonin]
specific binding of 2[125I]melatonin [3]: do not exhibit specific binding

Structure (SMILES): CCNC(=O)[C@H]1O[C@@H](n2cnc3c(N)ncnc32)[C@H](O)[C@@H]1O [NECA, 5'-N-ethylcarboxamidoadenosine]
affinity for A2a-adenosine receptors [4]: high affinity
stimulation of clones [5]: all were found to be stimulated by NECA addition
EC100 ([6]; 10 min, read-out: concentration of maximal stimulation of cAMP): 10 µM
NECA-stimulated increase in cAMP levels ([6]; dose-response): dose-dependent increase in cAMP levels
specific binding [3]: bind the nonselective adenosine agonist NECA

Structure (SMILES): Nc1ncnc2c1ncn2[C@@H]1O[C@H](CO)[C@@H](O)[C@H]1O [adenosine]
cAMP accumulation [7]: Neither NECA or adenosine (1 mM) induced cAMP accumulation

specific binding [2]: specifically bound
Structure (SMILES): OC[C@H]1O[C@@H](n2cnc3c(NC4CCCC4)nc(Cl)nc32)[C@H](O)[C@@H]1O [[^3 H]CCPA, [^3 H]2-chloro-N-cyclopentyladenosine]
specific binding [3]: did not bind; also recorded: do not bind either the A1 - or A2a -receptor-specific agonists with high affinity
specific binding [8]: Only cells transfected with the A1 -adenosine receptor cDNA specifically bound

Structure (SMILES): Cn1c(=O)c2[nH]cnc2n(C)c1=O [aminophylline]
inhibition of maximal NECA-stimulated increase in cAMP levels ([6]; antagonist 10^-2 M): completely blocked; also recorded: completely inhibited

Structure (SMILES): CCNC(=O)[C@H]1O[C@@H](n2cnc3c(N)ncnc32)[C@H](O)[C@@H]1O [[^3 H]NECA, [^3 H]5'-N-ethylcarboxamidoadenosine]
[3H]NECA specific binding [9]: 150 ± 20 fmol/mg
specific binding [3]: specifically bound

Structure (SMILES): CCNC(=O)[C@H]1O[C@@H](n2cnc3c(N)nc(NCCc4ccc(CCC(=O)O)cc4)nc32)[C@H](O)[C@@H]1O [CGS-21680, 2-[p-(2-carboxyethyl)phenethylamino]5'-N-ethylcarbox-amidoadenosine]
affinity for dog A2a-adenosine receptor [10]: high affinity

Structure (SMILES): CCNC(=O)[C@H]1O[C@@H](n2cnc3c(N)nc(NCCc4ccc(CCC(=O)O)cc4)nc32)[C@H](O)[C@@H]1O [[^3 H]CGS-21680, [^3 H]2-[p-(2-carboxyethyl)phenethylamino]5'-N-ethylcarbox-amidoadenosine]
specific binding [2]: Only cells transfected with the A2a -adenosine receptor cDNA specifically bound
